Values quoted from earlier work in patent publication US11033606B2, “Composition comprising aflibercept, folinic acid, 5-fluorouracil (5-FU) and irinotecan (FOLFIRI)” (SANOFI, priority 2011, dated 2021).

What was measured:
[1] = system: non-small cell lung cancer (NSCLC); conditions: aflibercept added to docetaxel vs docetaxel plus placebo, second-line NSCLC
[2] = system: previously treated patients with metastatic colorectal cancer; conditions: pre-treated patients with MCRC

For “aflibercept: fusion protein: VEGFR1 D2 Ig domain fused to VEGFR2 D3 Ig domain, fused to IgG1 Fc domain (SEQ ID No 1)”, the “Primary endpoint of improvement in overall survival” value [1] is listed as “did not meet the pre-specified criteria” and the Tolerability [2] is listed as “well tolerated”.
